Structures can show the parent of a compound that is named as a salt.
Columns and labels:
[1] = system: rat model of chronic constriction injury; settings: Anesthesia and Analgesia 2001, 93, 1012-7; cited from earlier work
[2] = system: rodent model of post-operative pain; settings: Anesthesia and Analgesia 2001, 92, 233-238; cited from earlier work
[3] = system: gastric lesions induced by taurocholate acid, aspirin or indomethacin; settings: rats, Ogletree et al 1992; cited from earlier work
[4] = biological target: T1, human TP receptor (Homo sapiens, UniProt P21731); test: human TP calcium mobilisation assay; type: cell-based; settings: CHO-K1 cells, antagonism of U46619; averages of a number of experiments; read-out: functional pKi value (human TP calcium mobilisation assay) (converted)
T1 construct: expressed in transfected cells; host or cells: CHO-K1
T1 sequence (P21731 1-343): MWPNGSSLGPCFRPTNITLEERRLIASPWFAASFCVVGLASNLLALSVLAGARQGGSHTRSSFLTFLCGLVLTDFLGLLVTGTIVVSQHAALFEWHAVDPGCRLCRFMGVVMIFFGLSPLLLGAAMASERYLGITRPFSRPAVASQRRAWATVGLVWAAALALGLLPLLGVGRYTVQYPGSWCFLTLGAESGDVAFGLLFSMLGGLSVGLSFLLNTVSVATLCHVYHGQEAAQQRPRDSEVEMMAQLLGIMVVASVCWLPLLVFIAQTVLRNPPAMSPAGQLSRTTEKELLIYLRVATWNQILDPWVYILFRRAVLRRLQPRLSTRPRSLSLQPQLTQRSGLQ
Description: To determine if a compound has agonist or antagonist activity at the TP receptor a functional calcium mobilisation assay may be performed. Briefly, the antagonist properties of compounds are assessed by their ability to inhibit the mobilisation of intracellular calcium ([Ca^2+]i) in response to activation of TP receptors by the stable TXA2 mimetic U46619 (9,11-dideoxy-11α,9α-epoxy-methanoprostaglandin F2α; commercially available from e.g Sigma-Aldrich). Increasing concentrations of antagonist reduce the amount of calcium that a given concentration of U46619 can mobilise. The net effect is to displace the U46619 concentration-effect curve. The amount of calcium produced is assessed using a calcium-sensitive fluorescent dye such as Fluo-4, AM and a suitable instrument such as a Fluorimetric Imaging Plate Reader (FLIPR). Increasing amounts of [Ca^2+]i produced by receptor activation increase the amount of fluorescence produced by the dye and give rise to an increasing signal. The signal may be detected using the FLIPR instrument and the data generated may be analysed with suitable curve-fitting software. The agonist activity of the compounds are determined by their ability to cause an increase in intracellular mobilisation in the absence of U46619.
(§1) The human TP calcium mobilisation assay utilises Chinese hamster ovary-K1 (CHO-K1) cells into which a stable (pCIN; BioTechniques 20 (1996): 102-110) vector containing TP cDNA has previously been transfected. Cells are cultured in suitable flasks containing culture medium such as DMEM:F-12 supplemented with 10% v/v foetal calf serum, 2 mM L-glutamine, 0.25 mg/ml geneticin, 100 μM flurbiprofen and 10 μg/ml puromycin.
(§2) For assay, cells are harvested using a proprietary reagent that dislodges cells such as Versene. Cells are re-suspended in a suitable quantity of fresh culture media for introduction into a 96-well plate. Following incubation for 24 hours at 37° C. the culture media is replaced with a medium containing Fluo-4 and the detergent pluronic acid, and a further incubation takes place. Concentrations of compounds are then added to the plate in order to construct concentration-effect curves. This may be performed on the FLIPR in order to assess the agonist properties of the compounds. Concentrations of U46619 are then added to the plate in order to assess the antagonist properties of the compounds.
The data so generated may be analysed by means of a computerised curve-fitting routine. The concentration of compound that elicits a half-maximal inhibition of the calcium mobilisation induced by U46619 (pIC50) may then be estimated, and the percentage activation caused by the compounds directly can be used to determine if there is any agonism present.

[5] = biological target: T2, human EP1 receptor (Homo sapiens, UniProt P34995); test: Binding assay for the human prostanoid EP1 receptor (radioligand competition); set-up: expressed in transfected cells; host or cells: CHO-K1 (membranes); settings: CHO-K1 membranes; [3H]-PGE2 for Examples 1-17, 19, 33, 34, 60 and 61, 3-{2-[5-Bromo-2-(2,4-difluorobenzyloxy)-phenyl]-5-methyl-pyrrol-1-yl}-6-[3H3-methoxy]methoxy-benzoic acid for the remaining; averages of a number of experiments; read-out: pIC50 value (binding assay for the human prostanoid EP1 receptor) (converted)
T2 sequence (P34995 1-402): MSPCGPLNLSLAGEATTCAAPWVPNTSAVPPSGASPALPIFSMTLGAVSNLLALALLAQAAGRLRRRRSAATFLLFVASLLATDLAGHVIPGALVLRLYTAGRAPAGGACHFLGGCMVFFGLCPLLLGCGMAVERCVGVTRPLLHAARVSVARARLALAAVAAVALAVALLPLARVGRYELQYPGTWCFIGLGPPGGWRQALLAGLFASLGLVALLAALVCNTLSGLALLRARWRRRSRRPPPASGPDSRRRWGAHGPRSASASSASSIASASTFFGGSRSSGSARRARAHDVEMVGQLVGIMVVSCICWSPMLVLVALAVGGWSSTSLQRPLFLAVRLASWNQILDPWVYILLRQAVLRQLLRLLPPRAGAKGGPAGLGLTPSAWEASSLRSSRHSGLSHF
Outline: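 Membranes from CHO-K1 cells stably expressing human EP1, in pH 6 MES buffer with 10 mM MgCl2. Competition with [3H]-PGE2 (3 nM final) for 30 min at 30 °C, or alternatively with a tritiated benzoic-acid ligand (0.2 nM final) for 45 min at 37 °C; filtration and scintillation counting, IC50 by non-linear fitting.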

[6] = biological target: T3, human EP3 receptor (Homo sapiens, UniProt P43115); test: human EP3 calcium mobilisation assay; type: cell-based; settings: CHO-K1 cells, antagonism of PGE2; averages of a number of experiments; read-out: functional pKi value (human EP3 calcium mobilisation assay) (converted)
T3 construct: expressed in transfected cells; host or cells: CHO-K1
T3 sequence (P43115 1-390): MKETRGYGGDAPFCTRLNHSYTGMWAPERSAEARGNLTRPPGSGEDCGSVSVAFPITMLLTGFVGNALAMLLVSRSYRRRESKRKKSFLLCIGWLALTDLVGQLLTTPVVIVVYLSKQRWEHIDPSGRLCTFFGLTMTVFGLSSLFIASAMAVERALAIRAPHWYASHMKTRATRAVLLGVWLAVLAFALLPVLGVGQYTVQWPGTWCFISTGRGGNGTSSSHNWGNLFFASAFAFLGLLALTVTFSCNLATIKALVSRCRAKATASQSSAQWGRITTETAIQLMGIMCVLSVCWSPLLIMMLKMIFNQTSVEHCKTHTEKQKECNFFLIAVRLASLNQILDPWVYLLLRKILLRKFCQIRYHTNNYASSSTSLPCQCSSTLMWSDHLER
Description: Briefly, the antagonist properties of compounds are assessed by their ability to inhibit the mobilisation of intracellular calcium ([Ca^2+]i) in response to activation of EP1 or EP3 receptors by the natural agonist hormone prostaglandin E2 (PGE2). Increasing concentrations of antagonist reduce the amount of calcium that a given concentration of PGE2 can mobilise. The net effect is to displace the PGE2 concentration-effect curve to higher concentrations of PGE2. The amount of calcium produced is assessed using a calcium-sensitive fluorescent dye such as Fluo-4, AM and a suitable instrument such as a Fluorimetric Imaging Plate Reader (FLIPR). Increasing amounts of [Ca^2+]i produced by receptor activation increase the amount of fluorescence produced by the dye and give rise to an increasing signal. The signal may be detected using the FLIPR instrument and the data generated may be analysed with suitable curve-fitting software.
as §1, with “human EP1 or EP3” for “human TP”, “assay (hereafter referred to as ‘the calcium assay’)” for “assay”, “stable (PCIN;” for “stable (pCIN;”, “containing either EP1 or EP3” for “containing TP”
as §2, with “384-well” for “96-well”, “PGE2” for “U46619”
The data so generated may be analysed by means of a computerised curve-fitting routine. The concentration of compound that elicits a half-maximal inhibition of the calcium mobilisation induced by PGE2 (pIC50) may then be estimated.

[7] = biological target: T2, human EP1 receptor; test: human EP1 calcium mobilisation assay; type: cell-based; set-up: expressed in transfected cells; settings: CHO-K1 cells, antagonism of PGE2; averages of a number of experiments; read-out: functional pKi value (human EP1 calcium mobilisation assay) (converted)
Outline: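 CHO-K1 cells stably transfected with human EP1 or EP3, loaded with Fluo-4 after 24 h culture, treated with compound, then challenged with PGE2. Calcium-driven fluorescence read on FLIPR; pIC50 is half-maximal inhibition of PGE2-induced calcium mobilisation, from curve fitting.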

Structure (SMILES) | IC50 [5] | Ki [6] | Ki [7] | also measured
Cc1cc(Cl)ccc1S(=O)(=O)NC[C@H]1C2CCC(CC2)[C@@H]1/C=C\CCCC(=O)O [ONO-8711] | – | – | – | hyperalgesia and allodynia [1]: reduces hyperalgesia and allodynia; mechanical hyperalgesia [2]: inhibits mechanical hyperalgesia
O=C(O)Cc1ccc(CCNS(=O)(=O)c2ccc(Cl)cc2)cc1 [BM 13505] | – | – | – | gastric lesions [3]: inhibit gastric lesions
CC(C)c1cc2cc(Cl)cc(Cc3ccc(-c4nc5ccccc5[nH]4)o3)c2o1 [Example 2, 2-(5-{[5-Chloro-2-(1-methylethyl)-1-benzofuran-7-yl]methyl}-2-furanyl)-1H-benzimidazole Hydrochloride] | ≤ 100 nM | – | – | Ki [4]: > 3160 nM
CC(C)c1cc2cc(Cl)cc(Cc3ccc(C(=O)Nc4c(F)cccc4F)o3)c2o1 [Example 8, 5-{[5-Chloro-2-(1-methylethyl)-1-benzofuran-7-yl]methyl}-N-(2,6-difluorophenyl)-2-furancarboxamide] | – | 501 to 10000 nM | – | Ki [4]: > 3160 nM

Second part, led by results:

IC50 [5] | Ki [6] | Ki [7] | Structure (SMILES) | also measured
≤ 100 nM | 501 to 10000 nM | ≤ 316 nM | Cc1cc(C(=O)Nc2ccc(CN3CCCC3)cc2)nn1Cc1cc(Br)cc2cc(C(C)C)oc12 [Example 51, 1-{[5-Bromo-2-(1-methylethyl)-1-benzofuran-7-yl]methyl}-5-methyl-N-[4-(1-pyrrolidinylmethyl)phenyl]-1H-pyrazole-3-carboxamidehydrochloride] | –
≤ 100 nM | 501 to 10000 nM | ≤ 316 nM | Cc1cc(C(=O)O)nn1Cc1cc(S(C)(=O)=O)cc2cc(C(C)C)oc12 [Example 22, 5-methyl-1-{[2-(1-methylethyl)-5-(methylsulfonyl)-1-benzofuran-7-yl]methyl}-1H-pyrazole-3-carboxylic Acid] | –
≤ 100 nM | 501 to 10000 nM | ≤ 316 nM | Cc1cc(C(=O)Nc2ccc(CO)cc2)nn1Cc1cc(Br)cc2cc(C(C)C)oc12 [Example 71] | –

— US20090099169A1, “Benzofuran Compounds As EP1 Receptor Antagonists” (GLAXO GROUP LIMITED, priority 2006, published 2009)
